Laboratory results from patent US20070116820A1, “EDIBLE GEL COMPOSITIONS COMPRISING HIGH-POTENCY SWEETENERS” (THE COCA-COLA COMPANY, priority 2005, published 2007).

Columns and labels:
[1] = Rate of dissolution of rebaudioside A polymorph and amorphous forms in H2O at 25° C.; assay type: physicochemical
[2] = assay type: physicochemical
Protocol: A solution of rebaudioside A (>97% pure by HPLC ) was prepared in double distilled water (12.5 gm in 50 mL, 25% concentration) by stirring the mixture at 40° C. for 5 minutes. An amorphous form of rebaudioside A was formed by immediately using the clear solution for spray drying with the Lab-Plant spray drier SD-04 instrument (Lab-Plant Ltd., West Yorkshire, U.K.). The solution was fed through the feed pump into the nozzle atomizer which atomized it into a spray of droplets with the help of a constant flow of nitrogen/air. […] This dry powder (11-12 g, H2O 6.74%) was discharged continuously from the drying chamber and was collected in a bottle.

Rate of dissolution in H2O at 25° C. ([1]; per 60 minutes) | solubility in water at room temperature [2] [%] | Rate of dissolution in H2O at 25° C. ([1]; per 5 minutes) | Substance
(<0.2%/ %/60 minutes | – | – | rebaudioside A [Form 1]
– | > 35.0 | High (>35.0%/ %/5 minutes | rebaudioside A [Form 4]
– | – | High (>30%/ %/5 minutes | rebaudioside A [Form 3]
– | – | (<30%/ %/5 minutes | rebaudioside A [Form 2]
